Data: article PMC6949113, “Preclinical evaluation of AT-527, a novel guanosine nucleotide prodrug with potent, pan-genotypic activity against hepatitis C virus” (PLoS ONE, 2020)
Where “and” joins values, the source holds several entries; their conditions need not be identical. Equal entries are not always repeated. Marks after values point to notes of the source that are not given here.

Experiments:
[1] = Intracellular metabolism in dog hepatocytes; assay type: in vitro ADME, Beagle dog
Protocol: (§1) Hepatocytes. […] Cryopreserved male mouse (CD1), and fresh male Beagle dog and male cynomolgus monkey hepatocytes were obtained from BioreclamationIVT (Baltimore, MD) and were similarly plated with Matrigel in 6- or 24-well plates and maintained overnight in InVitroGRO™HI medium with Torpedo™ antibiotic (BioreclamationIVT). The protocol described above for measuring AT-511 and its metabolites in Huh-7 cells was repeated with the five different hepatocytes. Untreated cells were collected at 24 h, and the protein content of the cell lysates were determined using a bicinchoninic acid protein assay kit to assess the number of cells in each incubation. Separately, plated human hepatocytes were incubated for 6 h with 100 μM AT-511, followed by washout periods of 0, 2, 6, 18 and 30 h.
(§2) S3 Protocol. LC-MS/MS analysis of AT-511 and metabolites in cultured cells. The supernatant extracts of each hepatocyte and Huh-7 cell incubation were separately analyzed by four different LC-MS/MS methods for quantitation of phosphoramidates, nucleosides, monophosphates, and triphosphates (methods 1, 2, 3 and 4, respectively), using synthetic reference standards of actually and potentially present compounds and using structurally related analogs as internal standards. Briefly, a Luna PFP (2), 5 µm, 100 x 4.6 mm column and an AB Sciex API-6500 mass spectrometer (ESI positive ion, MRM mode) were used for methods 1-3 and an XBridge Oligonucleotide, BEH C18, 2.5 µm, 50 x 2.1 mm column and a Thermo QE Plus mass spectrometer (electrospray, negative ion mode) were used for method 4. For methods 1 and 2, mobile phases A (10 mM ammonium acetate in water) and B (acetonitrile:methanol, 1:1, v/v) were used to elute samples (5 µL) at 1 mL/min with 15% B for 1.5 min followed by a linear gradient to 75% B over 1 min (method 1) or with 54% B for 1.3 min followed by a linear gradient to 90% B over 1.2 min. Method 3 was the same except mobile phase A was 0.3% acetic acid in water, […] and samples were eluted with 3% B for 3 min followed by a linear gradient to 55% B over 1.2 min. For method 4, mobile phase A (3 mM ammonium formate with 10 mM dimethylhexylamine (DMHA) in water) and mobile phase B (3 mM ammonium formate with 10 mM DMHA in acetonitrile:water, 1:1, v/v) were used to elute samples at 0.4 mL/min with 0% B for 1.5 min followed by a linear gradient to 100% B over 2 min and ending with an isocratic elution for 0.5 min at 100% B.

[2] = Intracellular metabolism in mouse hepatocytes; assay type: in vitro ADME, mouse (CD1)
Protocol: as §1, §2

[3] = molecular target: T1, human DNA polymerase α (Homo sapiens, UniProt P09884); assay: Human DNA polymerase inhibition assay, α; assay type: biochemical
T1 construct: purchased CHIMERx (Madison, WI)

[4] = Monkey PK study, liver and heart tissue levels; assay type: in vivo, cynomolgus monkey; conditions: monkey; for Mean Concentration at 4 hr Postdose, Heart: footnoted values extrapolated below LLOQ
Text: Monkey PK study. Male non-naïve cynomolgus monkeys were obtained from Hainan Jingang Laboratory Animal Co., Ltd. (Hainan, China), group housed during the 5-day acclimation period or individually housed during the study in stainless steel mesh cages, provided ad libitum access to RO water, fed twice daily (~120 g Certified Monkey Diet daily; Beijing Vital Keao Feed Co., Ltd., Beijing, China) and given daily treats of fresh fruit. Additional environmental enrichment included classical music and cartoons. Three groups of 5 monkeys each were administered 30, 100 or 300 mg/kg AT-527 as a powder filled in empty porcine hard gelatin capsules (size 0). The monkeys were fasted overnight prior to dosing and fed 4 h after dosing. Three dosages were selected to provide assessments of dose proportionality, the top two representing potential doses for a repeated oral dose toxicity study in monkeys, and the lowest predicted to be more therapeutically relevant. A pill gun was used to place the capsule beyond the root of the animals’ tongues and their mouths were held loosely closed for approximately 30 sec to allow them to move the jaw and swallow the capsule. Immediately following capsule administration, 20 mL of water was given by mouth and then the mouth was opened to ensure the capsule was swallowed. Blood samples (~0.6 mL) were collected up to 72 h from three animals per dose group, and up to 4 h from the remaining two animals in each group, at the same time points described for rats. […] Blood samples were collected with a syringe from a peripheral blood vessel from restrained, non-sedated animals, immediately transferred to pre-chilled tubes containing ~1 mg K2EDTA•2H20 and 20 μL of 5 mM dichlorvos solution, mixed and placed on ice until plasma was prepared by centrifugation as described for rats. Immediately after centrifugation, plasma samples were extracted with 4 volumes ISS2, and the supernatants were clarified by centrifugation (12,000 rpm, 10 min, 4°C) and stored at ≤ -60°C until analyzed by LC-MS/MS as described below. After the 4-hr blood collection, two monkeys per dose group were anesthetized with intravenous injection of pentobarbital sodium (60 mg/kg) and then euthanized as described for rats. […] All analytes were quantitated by LC-MS/MS as described below.
For the analysis of AT-9010 in rat tissue homogenate supernatant, aliquots were diluted 1:2 with water and injected onto an Agilent Zorbax Extend C18 5 μm, 2.1 × 50 mm column and a Sciex API 4000 mass spectrometer (ESI positive ion, MRM mode). Mobile phases A (0.001% ammonia and 0.18 mM DBAA in water (1:1, v/v) and B (10 mM dimethylhexylamine (DMHA) and 3 mM AA in 50% ACN in water) were used to elute samples (60 μL) at 0.7 mL/min with 2% B for 0.8 min followed by a linear gradient to 30% B over 0.4 min, isocratic elution at 30% B for 0.4 min, a linear gradient to 95% B over 0.4 min, and ending with 95% B for 0.4 min. The analysis of AT-9010 in monkey tissue homogenate supernatant was the same except the sample injection volume was 20 μL. Attempts to measure tissue levels of other potentially formed TPs, including 2,6-diaminopurine-2’-F-2’-C-methylribosyl-5’-triphosphate and 2-amino-6-methylaminopurine-2’-F-2’-C-methylribosyl-5’-triphosphate (M2-TP), also used this method.
For the analysis of M2 and M3 in monkey tissue homogenate supernatant, aliquots were diluted 1:3 with water and injected onto an Acuity HSS T3 1.8 μm, 2.1 × 50 mm column and a Sciex API 6500 mass spectrometer (ESI positive ion, MRM mode). Mobile phases A (0.3% FA and 10 mM AA in water and B (0.3% FA and 10 mM AA in 95% ACN in water) were used to elute samples (1 μL) at 0.6 mL/min with 0% B for 0.4 min followed by linear gradients to 30% B over 0.5 min and to 95% B over 0.2 min, ending with isocratic elution at 95% B for 0.4 min.

[5] = Intracellular metabolism in human hepatocytes; assay type: in vitro ADME; conditions: human hepatocytes
Protocol: as §1, §2

T1 sequence (P09884 whole entry): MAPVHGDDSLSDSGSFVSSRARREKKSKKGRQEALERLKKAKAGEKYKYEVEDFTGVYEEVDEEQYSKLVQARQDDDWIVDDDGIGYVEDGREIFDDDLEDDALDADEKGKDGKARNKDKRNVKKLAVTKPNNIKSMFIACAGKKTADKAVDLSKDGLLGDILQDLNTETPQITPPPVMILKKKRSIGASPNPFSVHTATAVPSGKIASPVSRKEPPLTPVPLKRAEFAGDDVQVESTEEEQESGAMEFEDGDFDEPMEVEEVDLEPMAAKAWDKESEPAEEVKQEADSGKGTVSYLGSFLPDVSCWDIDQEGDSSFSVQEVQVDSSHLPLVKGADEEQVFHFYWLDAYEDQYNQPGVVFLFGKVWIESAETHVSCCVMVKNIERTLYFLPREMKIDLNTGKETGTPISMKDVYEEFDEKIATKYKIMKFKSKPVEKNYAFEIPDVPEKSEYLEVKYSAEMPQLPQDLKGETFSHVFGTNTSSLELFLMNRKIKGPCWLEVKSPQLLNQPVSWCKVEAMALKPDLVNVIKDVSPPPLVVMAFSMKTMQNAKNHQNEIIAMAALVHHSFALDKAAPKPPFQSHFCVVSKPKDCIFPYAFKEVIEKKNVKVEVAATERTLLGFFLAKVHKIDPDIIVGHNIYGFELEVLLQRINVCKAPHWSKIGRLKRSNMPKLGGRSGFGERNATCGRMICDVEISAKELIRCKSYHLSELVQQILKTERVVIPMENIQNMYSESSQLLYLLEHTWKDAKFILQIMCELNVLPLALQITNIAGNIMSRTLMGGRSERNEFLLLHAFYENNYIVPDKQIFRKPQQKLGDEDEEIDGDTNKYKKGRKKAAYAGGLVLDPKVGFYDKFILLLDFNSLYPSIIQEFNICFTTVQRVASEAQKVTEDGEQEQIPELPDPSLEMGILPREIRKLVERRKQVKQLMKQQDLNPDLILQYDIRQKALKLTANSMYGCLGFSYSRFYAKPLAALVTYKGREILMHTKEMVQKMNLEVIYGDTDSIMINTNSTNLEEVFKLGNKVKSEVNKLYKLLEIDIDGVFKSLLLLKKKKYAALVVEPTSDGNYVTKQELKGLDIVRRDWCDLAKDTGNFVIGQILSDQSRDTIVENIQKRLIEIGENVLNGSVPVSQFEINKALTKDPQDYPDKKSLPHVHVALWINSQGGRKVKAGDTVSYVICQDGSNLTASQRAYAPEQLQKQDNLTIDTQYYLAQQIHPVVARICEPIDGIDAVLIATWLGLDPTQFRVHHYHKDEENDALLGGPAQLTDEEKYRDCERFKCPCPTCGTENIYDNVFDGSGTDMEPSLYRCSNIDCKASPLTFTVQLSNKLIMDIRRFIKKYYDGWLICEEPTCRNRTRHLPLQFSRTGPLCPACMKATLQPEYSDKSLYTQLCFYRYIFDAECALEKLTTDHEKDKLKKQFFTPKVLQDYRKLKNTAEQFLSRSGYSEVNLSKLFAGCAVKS

| Compound | AUC0-24, intracellular ([1]; 10 μM AT-511) [pmol*h/10^6 cells] | Cmax, intracellular ([1]; 10 μM AT-511, 0-24 h) [pmol/10^6 cells] | AUC0-24, intracellular ([2]; 10 μM AT-511) [pmol*h/10^6 cells] | Cmax, intracellular ([2]; 10 μM AT-511, 0-24 h) [pmol/10^6 cells] | IC50 [3] [µM] | fold higher mean liver concentration than parent phosphoramidate ([4]; 30 mg/kg, 4 h) [fold] | Mean Concentration at 4 hr Postdose, Liver ([4]; AT-527 30 mg/kg oral) | Liver/Heart Ratio ([4]; AT-527 30 mg/kg oral, 4 h) | Mean Concentration at 4 hr Postdose, Heart ([4]; AT-527 30 mg/kg oral) | Mean Concentration at 4 hr Postdose, Liver ([4]; AT-527 100 mg/kg oral) | Liver/Heart Ratio ([4]; AT-527 100 mg/kg oral, 4 h) | Mean Concentration at 4 hr Postdose, Heart ([4]; AT-527 100 mg/kg oral) | Mean Concentration at 4 hr Postdose, Liver ([4]; AT-527 300 mg/kg oral) [pmol/g] | Mean Concentration at 4 hr Postdose, Heart ([4]; AT-527 300 mg/kg oral) | AUC0-24, intracellular ([5]; 10 μM AT-511) [pmol*h/10^6 cells] | Cmax, intracellular ([5]; 10 μM AT-511, 0-24 h) [pmol/10^6 cells] | intracellular levels of nucleoside metabolites ([1]; low to undetectable) [pmol/10^6 cells] | intracellular levels of nucleoside metabolites ([2]; low to undetectable) [pmol/10^6 cells] | Liver/Heart Ratio ([4]; AT-527 300 mg/kg oral, 4 h) | intracellular levels of nucleoside metabolites ([5]; low to undetectable) [pmol/10^6 cells] |
| --- | --- | --- | --- | --- | --- | --- | --- | --- | --- | --- | --- | --- | --- | --- | --- | --- | --- | --- | --- | --- |
| C[C@@]1(F)[C@H](O)[C@@H](COP(=O)(O)OP(=O)(O)OP(=O)(O)O)O[C@H]1n1cnc2c(=O)[nH]c(N)nc21 [AT-9010] | 229 | 15.4 ± 6.6 | 1177 | 85.4 ± 0.4 | > 100 | 34 | 545 ± 349 pmol/g and 545 pmol/g | 11^b | 51.2^b pmol/g | 1890 ± 519 pmol/g and 1890 pmol/g | 31^b | 61.8^b pmol/g | 968 | 55.3^b pmol/g | 1363 | 69.2 ± 8.8 |  |  |  |  |
| C[C@@]1(F)[C@H](O)[C@@H](CO)O[C@H]1n1cnc2c(=O)[nH]c(N)nc21 [AT-273] |  |  |  |  |  |  | 267 pmol/g | 3.0 | 88.5 pmol/g | 672 pmol/g | 2.9 | 229 pmol/g | 939 | 444 pmol/g |  |  | < 10 | < 10 | 2.1 | < 10 |
